Reference: patent US12410162B2, “Pyrazole acylhydrazone containing trifluoromethylthiadiazole units, preparation method and use thereof” (NANTONG UNIVERSITY, priority 2020, dated 2025)

Test system: Mycosphaerella melonis
Experiment: Screening of bactericidal activity against Mycosphaerella melonis (toxic medium method)
Type: cell-based
Settings: test concentration 200 μg/mL, 24-26° C. in the dark
Procedure: Screening of the Bactericidal Activity of the Samples Against Mycosphaerella melonis The toxic medium method was used to determine the antibacterial activity of the target against Mycosphaerella melonis. First the drug solution was added to the culture medium, then the bacterial cake was placed on the culture medium, the petri dish was placed in a 24-26° C. incubator in the dark, and then cultured at a constant temperature. Then according to the growth rate of pathogenic bacteria, when the diameter of the control was to about 8 cm, the antibacterial rate % was calculated. The test concentration was 200 μg/mL (the drug solution with other concentrations was obtained by diluting the drug solution with the concentration of 200 μg/mL).

Row | SMILES | Mycosphaerella melonis (inhibition ratio, %) [%]
1 | Cc1nn(C)c(Oc2ccc(Cl)cc2Cl)c1C=NNC(=O)c1snnc1C(F)(F)F [Id] | 100
2 | Cc1nn(C)c(Oc2cccc(Cl)c2)c1C=NNC(=O)c1snnc1C(F)(F)F [Ia] | 100
3 | Cc1nn(C)c(Oc2cccc(Br)c2)c1C=NNC(=O)c1snnc1C(F)(F)F [Ib] | 100
4 | Cc1nn(C)c(Oc2ccc(F)cc2F)c1C=NNC(=O)c1snnc1C(F)(F)F [Ic] | 90
